Measurements from PubChem BioAssay (NCI).
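All cell lines were grown in 96-well plates and treated with compound for 48 hours. Abbreviation: GI50, concentration required for 50% inhibition of growth. TGI is the concentration that stops growth completely.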

How the values were obtained:
Assay in all cases: NCI-60 cell line screen, 48 h
BT-549 breast = tested on: BT-549 breast
NCI-H460 lung = tested on: NCI-H460 lung
HL-60(TB) leukemia = tested on: HL-60(TB) leukemia
LOX IMVI melanoma = tested on: LOX IMVI melanoma
ACHN renal = tested on: ACHN renal
EKVX NSCLC = tested on: EKVX NSCLC
SK-MEL-5 melanoma = tested on: SK-MEL-5 melanoma
MDA-MB-231 breast = tested on: MDA-MB-231 breast
SK-MEL-2 melanoma = tested on: SK-MEL-2 melanoma
NCI-H23 lung = tested on: NCI-H23 lung

Oc1c(CN2CCCC2)cc(CSCc2ccccc2)c2cccnc12
GI50 (BT-549 breast): 2.27 µM
TGI (BT-549 breast): 12.1 µM
GI50 (NCI-H460 lung): 0.498 µM
TGI (NCI-H460 lung): 2.83 µM
GI50 (HL-60(TB) leukemia): 0.554 µM
TGI (HL-60(TB) leukemia): 2.77 µM
GI50 (LOX IMVI melanoma): 0.386 µM
TGI (LOX IMVI melanoma): 2.48 µM
GI50 (ACHN renal): 0.291 µM
TGI (ACHN renal): 10.2 µM
GI50 (EKVX NSCLC): 1.99 µM
TGI (EKVX NSCLC): 11.9 µM
GI50 (SK-MEL-5 melanoma): 0.35 µM
TGI (SK-MEL-5 melanoma): 1.6 µM
GI50 (MDA-MB-231 breast): 0.987 µM
TGI (MDA-MB-231 breast): 12.2 µM
GI50 (SK-MEL-2 melanoma): 1.86 µM
TGI (SK-MEL-2 melanoma): 7.21 µM
GI50 (NCI-H23 lung): 1.31 µM
TGI (NCI-H23 lung): 5.12 µM

O=C1C(Cl)=C(c2ccc([N+](=O)[O-])cc2)C(=O)c2c(O)cccc21
TGI (BT-549 breast): 4.72 µM
TGI (NCI-H460 lung): 6.99 µM
TGI (HL-60(TB) leukemia): > 100 µM
TGI (LOX IMVI melanoma): 3.6 µM
TGI (ACHN renal): 2.36 µM
TGI (EKVX NSCLC): 33.4 µM
TGI (SK-MEL-5 melanoma): 3.46 µM
TGI (MDA-MB-231 breast): 3.13 µM
TGI (SK-MEL-2 melanoma): 2.22 µM
TGI (NCI-H23 lung): 4.14 µM

CC12CC=CCC1CCC1C2CCC2(C)C(c3ccc(=O)oc3)CCC12O (stereo not given)
GI50 (BT-549 breast): 0.04 µM
TGI (BT-549 breast): 0.209 µM
GI50 (NCI-H460 lung): 0.0338 µM
TGI (NCI-H460 lung): 0.128 µM
GI50 (HL-60(TB) leukemia): 0.0272 µM
TGI (HL-60(TB) leukemia): 0.0732 µM
GI50 (LOX IMVI melanoma): 0.0562 µM
TGI (LOX IMVI melanoma): 0.213 µM
GI50 (ACHN renal): 0.0369 µM
TGI (ACHN renal): 0.138 µM
GI50 (EKVX NSCLC): 0.0602 µM
TGI (EKVX NSCLC): 0.212 µM
GI50 (SK-MEL-5 melanoma): 0.0633 µM
TGI (SK-MEL-5 melanoma): 0.312 µM
GI50 (MDA-MB-231 breast): 0.336 µM
TGI (MDA-MB-231 breast): 1.64 µM
GI50 (SK-MEL-2 melanoma): 0.24 µM
TGI (SK-MEL-2 melanoma): 0.741 µM
GI50 (NCI-H23 lung): 0.0548 µM
TGI (NCI-H23 lung): 0.33 µM

NNS(=O)(=O)c1cc(C(=O)O)cc(C(=O)O)c1
TGI (BT-549 breast): > 100 µM
TGI (NCI-H460 lung): > 100 µM
TGI (HL-60(TB) leukemia): > 100 µM
TGI (LOX IMVI melanoma): > 100 µM
TGI (ACHN renal): > 100 µM
TGI (EKVX NSCLC): > 100 µM
TGI (SK-MEL-5 melanoma): > 100 µM
TGI (MDA-MB-231 breast): > 100 µM
TGI (SK-MEL-2 melanoma): > 100 µM
TGI (NCI-H23 lung): > 100 µM

CNCCNc1nc2ccccc2c2c(=O)c3cc(F)ccc3sc12
GI50 (BT-549 breast): 3.59 µM
TGI (BT-549 breast): 14.9 µM
GI50 (NCI-H460 lung): 1.78 µM
TGI (NCI-H460 lung): 3.32 µM
GI50 (HL-60(TB) leukemia): 1.89 µM
TGI (HL-60(TB) leukemia): 3.66 µM
GI50 (LOX IMVI melanoma): 1.57 µM
TGI (LOX IMVI melanoma): 2.98 µM
GI50 (ACHN renal): 1.56 µM
TGI (ACHN renal): 2.91 µM
GI50 (EKVX NSCLC): 1.74 µM
TGI (EKVX NSCLC): 3.57 µM
GI50 (SK-MEL-5 melanoma): 1.82 µM
TGI (SK-MEL-5 melanoma): 3.34 µM
GI50 (MDA-MB-231 breast): 1.61 µM
TGI (MDA-MB-231 breast): 3.18 µM
GI50 (SK-MEL-2 melanoma): 1.76 µM
TGI (SK-MEL-2 melanoma): 3.45 µM
GI50 (NCI-H23 lung): 1.8 µM
TGI (NCI-H23 lung): 3.65 µM

N=c1ccc2nc3c(cc(N)c4ccccc43)oc-2c1
GI50 (BT-549 breast): 0.268 µM
TGI (BT-549 breast): 1.27 µM
GI50 (NCI-H460 lung): 0.223 µM
TGI (NCI-H460 lung): 0.565 µM
GI50 (HL-60(TB) leukemia): 0.147 µM
TGI (HL-60(TB) leukemia): 0.733 µM
GI50 (LOX IMVI melanoma): 0.103 µM
TGI (LOX IMVI melanoma): 0.378 µM
GI50 (ACHN renal): 0.325 µM
TGI (ACHN renal): 1.44 µM
GI50 (EKVX NSCLC): 0.174 µM
TGI (EKVX NSCLC): 1.09 µM
GI50 (SK-MEL-5 melanoma): 0.144 µM
TGI (SK-MEL-5 melanoma): 0.277 µM
GI50 (MDA-MB-231 breast): 0.179 µM
TGI (MDA-MB-231 breast): 1.21 µM
GI50 (SK-MEL-2 melanoma): 0.407 µM
TGI (SK-MEL-2 melanoma): 1.61 µM
GI50 (NCI-H23 lung): 0.179 µM
TGI (NCI-H23 lung): 0.523 µM

CNCCNc1nc2ccccc2c2c(=O)c3cc(OC)ccc3sc12
GI50 (BT-549 breast): 1.59 µM
TGI (BT-549 breast): 3.11 µM
GI50 (NCI-H460 lung): 1.71 µM
TGI (NCI-H460 lung): 3.25 µM
GI50 (HL-60(TB) leukemia): 1.9 µM
TGI (HL-60(TB) leukemia): 3.6 µM
GI50 (LOX IMVI melanoma): 1.51 µM
TGI (LOX IMVI melanoma): 2.88 µM
GI50 (ACHN renal): 1.58 µM
TGI (ACHN renal): 2.93 µM
GI50 (EKVX NSCLC): 1.69 µM
TGI (EKVX NSCLC): 3.16 µM
GI50 (SK-MEL-5 melanoma): 1.71 µM
TGI (SK-MEL-5 melanoma): 3.09 µM
GI50 (MDA-MB-231 breast): 1.54 µM
TGI (MDA-MB-231 breast): 3.08 µM
GI50 (SK-MEL-2 melanoma): 1.94 µM
TGI (SK-MEL-2 melanoma): 3.83 µM
GI50 (NCI-H23 lung): 1.62 µM
TGI (NCI-H23 lung): 3.05 µM

O=C(N/N=C/c1ccc(Cl)cc1)c1[nH]c2ccc(Cl)cc2c1-c1ccccc1
GI50 (BT-549 breast): 0.146 µM
TGI (BT-549 breast): 3.58 µM
GI50 (NCI-H460 lung): 0.328 µM
TGI (NCI-H460 lung): 3.99 µM
GI50 (HL-60(TB) leukemia): 0.107 µM
TGI (HL-60(TB) leukemia): 0.393 µM
GI50 (LOX IMVI melanoma): 0.12 µM
TGI (LOX IMVI melanoma): > 37.4 µM
GI50 (ACHN renal): 0.199 µM
TGI (ACHN renal): > 45.3 µM
GI50 (EKVX NSCLC): 0.317 µM
TGI (EKVX NSCLC): > 100 µM
GI50 (SK-MEL-5 melanoma): 0.214 µM
TGI (SK-MEL-5 melanoma): 0.469 µM
GI50 (MDA-MB-231 breast): 0.201 µM
TGI (MDA-MB-231 breast): 0.633 µM
GI50 (SK-MEL-2 melanoma): 0.332 µM
TGI (SK-MEL-2 melanoma): 35.5 µM
GI50 (NCI-H23 lung): 0.328 µM
TGI (NCI-H23 lung): 35.5 µM

Nc1nc(N)nc(CC(=O)O)n1
TGI (BT-549 breast): > 100 µM
TGI (NCI-H460 lung): > 100 µM
TGI (HL-60(TB) leukemia): > 100 µM
TGI (LOX IMVI melanoma): > 100 µM
TGI (ACHN renal): > 100 µM
TGI (EKVX NSCLC): > 100 µM
TGI (SK-MEL-5 melanoma): > 100 µM
TGI (MDA-MB-231 breast): > 100 µM
TGI (SK-MEL-2 melanoma): > 100 µM
TGI (NCI-H23 lung): > 100 µM

Cc1cc(=O)oc2cc(OC(=O)N(CCCl)CCCl)ccc12
TGI (BT-549 breast): > 100 µM
TGI (NCI-H460 lung): > 100 µM
TGI (HL-60(TB) leukemia): > 100 µM
TGI (LOX IMVI melanoma): > 100 µM
TGI (ACHN renal): > 100 µM
TGI (EKVX NSCLC): > 100 µM
TGI (SK-MEL-5 melanoma): > 100 µM
TGI (MDA-MB-231 breast): > 100 µM
TGI (SK-MEL-2 melanoma): > 100 µM
TGI (NCI-H23 lung): > 100 µM

Clc1ccc2ns[s+]c2c1
TGI (BT-549 breast): > 100 µM
TGI (NCI-H460 lung): > 100 µM
TGI (HL-60(TB) leukemia): > 77.9 µM
TGI (LOX IMVI melanoma): > 84 µM
TGI (ACHN renal): > 94.3 µM
TGI (EKVX NSCLC): > 100 µM
TGI (SK-MEL-5 melanoma): > 96.2 µM
TGI (MDA-MB-231 breast): > 100 µM
TGI (SK-MEL-2 melanoma): > 82.5 µM
TGI (NCI-H23 lung): > 46.4 µM
